The text below walks through data of doi:10.1101/2024.09.04.610228v1 (bioRxiv, 2024).

One assay addresses FOXO4 FHD (Homo sapiens, UniProt P98177). Briefly: FPA competition assay. It is filed as binding. To be noted: FPA competition analysis.
For a further assay, the system named is A375 cells. As to the kind of experiment: MTS cell viability assay, dividing vs cisplatin. It is filed as cell-based, Human. To be noted: dividing vs CDDP (4 µM)-induced senescent A375 cells. (Tetrazolium dyes change colour on reduction, which living cells bring about.)
In the next assay the test system is caspase 3/7. Briefly: Caspase 3/7 activity. In kind it is cell-based, Human. To be noted: senescent A375 cells; 20 μM, 24 h.
In assay [1] the test system is FOXO4 foci in senescent A375 cells. Briefly: Immunofluorescence of FOXO4 foci in nuclei of senescent A375 cells. In kind it is cell-based, Human. To be noted: doxorubicin-induced senescent A375 cells; 30 μM CPP-CAND, 24 h; vs DMSO mock.

Peptide text beside a SMILES is read from it.

FOXO4 FHD, sequence (P98177 95-195): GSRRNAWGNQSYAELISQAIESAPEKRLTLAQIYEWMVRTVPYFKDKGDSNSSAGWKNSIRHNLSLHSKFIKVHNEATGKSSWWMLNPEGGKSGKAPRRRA

For `CC[C@H](C)[C@H](NC(=O)[C@H](C)NC(=O)[C@H](C)NC(=O)[C@@H]1CCCN1C(=O)[C@H](CO)NC(=O)[C@H](CC(C)C)NC(=O)[C@H](CCSC)NC(=O)[C@H](CC(C)C)NC(=O)[C@H](C)N)C(=O)N[C@@H](C)C(=O)N[C@@H](CCC(N)=O)C(=O)N[C@@H](Cc1c[nH]c2ccccc12)C(=O)N[C@@H](Cc1ccccc1)C(=O)N[C@H](C(=O)N[C@@H](C)C(=O)N[C@@H](C)C(=O)O)[C@@H](C)O` [CAND] (H-ALMLSPAAIAQWFTAA-OH; N-terminus and C-terminus assumed), the “Enhancement of inhibitory ability compared to p53 TAD PEP” value on FOXO4 FHD is given as “approximately three-fold”.
`CC[C@H](C)[C@H](NC(=O)[C@H](C)NC(=O)[C@H](C)NC(=O)[C@@H]1CCCN1C(=O)[C@H](CO)NC(=O)[C@H](CC(C)C)NC(=O)[C@H](CCSC)NC(=O)[C@H](CC(C)C)NC(=O)[C@H](C)NC(=O)[C@@H]1CCCN1C(=O)[C@@H]1CCCN1C(=O)[C@H](CCCNC(=N)N)NC(=O)[C@H](CCCNC(=N)N)NC(=O)[C@H](CCCNC(=N)N)NC(=O)[C@H](CCC(N)=O)NC(=O)[C@H](CCCNC(=N)N)NC(=O)[C@H](CCCNC(=N)N)NC(=O)[C@H](CCCCN)NC(=O)[C@H](CCCCN)NC(=O)[C@H](CCCNC(=N)N)NC(=O)CN)C(=O)N[C@@H](C)C(=O)N[C@@H](CCC(N)=O)C(=O)N[C@@H](Cc1c[nH]c2ccccc12)C(=O)N[C@@H](Cc1ccccc1)C(=O)N[C@H](C(=O)N[C@@H](C)C(=O)N[C@@H](C)C(=O)O)[C@@H](C)O` [CPP-CAND] (H-GRKKRRQRRRPPALMLSPAAIAQWFTAA-OH; N-terminus and C-terminus assumed): the “SI75 (selectivity index from IC75 values)” value with A375 cells was “approximately 2.4”. Besides, in the assay on caspase 3/7, the “Caspase 3/7 activity (percentage of green fluorescent cells), senescent cells” value is listed as 44%. Moreover, the “Reduction in number of FOXO4 foci in nuclei” value in assay [1] is recorded as “approximately 7.1 fold”.
